Measured values from US12590054B2 (Board of Regents, The University of Texas System, priority 2021, dated 2026).
“Also recorded” adds a separate entry of the source.

How the values were obtained:
[1] = system: mice with plantar incision; test: Postoperative pain model (plantar incision), von Frey paw withdrawal; conditions: for effect on postoperative mechanical hypersensitivity: post-operative treatment
Procedure: (§1) Animal models of pain. To model postoperative pain in mice, plantar incision was performed under isoflurane anesthesia. Specifically, a 4-8 mm incision was made through the skin, fascia, and muscle of the plantar side of one hind paw, longitudinally starting from the proximal edge of the heel. The skin was apposed with sutures (Fine Science Tools, Foster City, CA). The suture was removed at the end of postoperative day 2. To model neuropathic pain in mice, a surgery was performed to ligate the fifth lumbar (L5) spinal nerve (spinal nerve ligation, SNL).
(§2) Behavioral testing. Mechanical pain sensitivity after plantar incision or SNL was assessed by measuring paw withdrawal behaviors in response to von Frey filament (VFF) probing. A mouse was placed in a plastic chamber on top of a mesh screen platform. The VFF of 0.98 mN was applied perpendicularly to the hind paw. […] The percent of withdrawal responses out of the ten trials was recorded.
(§3) Statistical analysis. We used a generalized linear mixed model to analyze the number of withdrawals out of 10 trials (binomial distribution) repeatedly measured at multiple time points (AR1 covariance structure) with random intercepts for subject (i.e., mouse) variances. Degrees of freedom were allowed to vary across tests by Satterthwaite approximation.

naïve mice = test: Abuse liability, conditioned place preference (CPP) paradigm; format: in vivo, mouse; conditions: 2-day conditioning
Procedure: Experimental approaches. […] Specifically, one day after measuring natural place preference, vehicle was be given in the morning, and the mouse was placed in its preferred chamber for 20 min. In the afternoon, test drugs were given, and the mouse was placed in its non-preferred chamber for 20 min. This conditioning procedure was repeated 2 times. One day after the last conditioning session, CPP for the drug-paired chamber was measured for 20 min.

[2] = system: mice with spinal nerve ligation (SNL); test: Neuropathic pain model (spinal nerve ligation, SNL), von Frey paw withdrawal
Procedure: as §1, §2, §3

[3] = Tissue distribution after single i.v. injection in male CD-1 mice; conditions: for rank order of the exposure of the organs to the parent drug: i.v. administration
human hepatic microsomes = conditions: pooled human liver microsomes, 50-200 μM substrate, 20 min, 37° C.
Procedure: The reaction was incubated for 20 min at 37° C. and terminated by the addition of 1.2 mL of cold acetonitrile.
Analytical method: An LC-MS/MS method for the quantification of EDDP, d3-EDDP and d6-EDDP was developed and validated. The samples were analyzed with an API 4000 triple quadrupole mass spectrometer coupled with an Agilent HPLC 1200 system (Applied Biosystems, Foster City, CA). […] Separation of EDDP, d3-EDDP and d6-EDDP was achieved by a Waters Symmetry C18 HPLC column at 45° C.

[4] = Plasma pharmacokinetics after single i.v. injection in male CD-1 mice; conditions: parent drug in plasma, 2.0 mg/kg i.v.
Swiss mice = conditions: intraperitoneally (i.p.); cited from earlier work
[5] = 3 mg/kg i.p., once daily for 4 days

## [2H]C([2H])([2H])CC(=O)C(CC(C)N(C([2H])([2H])[2H])C([2H])([2H])[2H])(c1ccccc1)c1ccccc1 (racemic) [d9-methadone]
[1]; intra-operative treatment, 3 mg/kg i.p.
  postoperative mechanical hypersensitivity vs methadone-treated mice, next day: no difference
[1]; intra-operative treatment, 3 mg/kg i.p. before plantar incision
  postoperative mechanical hypersensitivity vs methadone-treated mice, day of surgery (2 hr, 4 hr): lower postoperative mechanical hypersensitivity
[1]; once daily for 4 days, 3 mg/kg i.p.
  development of analgesic tolerance: no development of the apparent analgesic tolerance
[1]; [5]
  effect on postoperative mechanical hypersensitivity: alleviated hypersensitivity after each systemic injection
[1]; postoperative treatment, paired comparison
  Cohen's d, % withdrawals before and after treatment: > 20
[1]; preliminary intra-operative treatment
  Cohen's d between methadone and d9-methadone groups, % of withdrawals 4 hours post-incision: 2.1
naïve mice
  conditioned place preference for the drug-paired chamber: did not develop conditioned place preference; also recorded: did not develop CPP; also recorded: did not show any apparent conditioned place preference
[2]; 3 mg/kg i.p. once daily for 3 days after SNL
  effect on neuropathic pain (tactile allodynia): effectively alleviated this neuropathic pain after each injection; also recorded: effectively inhibited this neuropathic pain after each injection
[2]; once daily for 3 days, 3 mg/kg i.p.
  development of analgesic tolerance: no development of the apparent analgesic tolerance
[3]
  rank order of the exposure of the organs to the parent drug: lungs>kidneys≈liver>spleen>heart>brain
[3]; male, CD-1, mouse, in vivo, iv, 2 mg/kg
  Kp: 0.35 ± 0.12
Human hepatic microsomes
  biotransformation (N-demethylation) rate compared to the non-deuterated substrate: further decreased the rate

## CCC(=O)C(CC(C)N(C)C)(c1ccccc1)c1ccccc1 (racemic) [methadone, 6-(dimethylamino)-4,4-diphenylheptan-3-one]
[1]; [5]
  effect on postoperative mechanical hypersensitivity: unable to reduce
naïve mice
  conditioned place preference for the drug-paired chamber: developed CPP; also recorded: relatively weaker conditioned place preference
[4]
  AUC0-8 h: 414 ± 67 ng·h/mL
  AUC0-∞: 436 ± 75 ng·h/mL
  Tmax: 0.08 ± 0^ h
[4]; mean ± s.d.
  Cmax: 521 ± 55 ng/mL
[3]
  rank order of the exposure of the organs to the parent drug: kidneys≈lungs>spleen>liver>heart>brain
Swiss mice
  LD50: 41 mg/kg

## CCC1=[N+](C)C(C)CC1(c1ccccc1)c1ccccc1 (stereo not drawn) [EDDP, 2-ethylidine-1,5-dimethyl-3,3-diphenylpyrrolidine]
[3]; i.v. administration of the parent drug
  rank order of the exposure of the organs to the metabolite: lungs>liver>kidney≈heart>spleen

## C=CC[N+]1(C)CC[C@]23c4c5ccc(O)c4O[C@H]2C(=O)CC[C@@]3(O)[C@H]1C5 (stereo partly drawn) [NLXM, naloxone methiodide, reference compound]
[1]; NLXM 10 mg/kg i.p. 30 minutes before d9-methadone
  effect of NLXM on the relief of postoperative pain by d9-methadone: completely blocked the effect of d9-methadone

## [2H]C([2H])([2H])CC(=O)C(CC(C)N(C)C)(c1ccccc1)c1ccccc1 (stereo not drawn) [d3-methadone, reference compound]
Human hepatic microsomes
  biotransformation (N-demethylation) rate compared to the non-deuterated substrate: significantly decreased the biotransformation

## CN1CC[C@]23c4c5ccc(O)c4O[C@H]2[C@@H](O)C=C[C@H]3[C@H]1C5 [morphine]
naïve mice
  conditioned place preference for the drug-paired chamber: spent significantly more time in the bright chamber; also recorded: developed CPP
